Test results published in ChEMBL document CHEMBL1153694, “Non-hinge-binding pyrazolo[1,5-a]pyrimidines as potent B-Raf kinase inhibitors” (Bioorg Med Chem Lett, 2009).

Legend:
[1] = molecular target: Serine/threonine-protein kinase B-raf (Homo sapiens, UniProt P15056); assay: Inhibition of human recombinant B-Raf expressed in Sf9 cells
[2] = Cytotoxicity against human HT-29 cells expressing B-Raf mutant
WM-266-4 (Homo sapiens) [3] = assay: Cytotoxicity against human WM266.4 cells expressing B-Raf mutant
in vitro = settings: rat, liver microsomes
WM-266-4 (Homo sapiens) [4] = assay: Cytotoxicity against human WM-266-4 cells expressing B-Raf mutant
[5] = molecular target: T1, Dual specificity mitogen-activated protein kinase kinase 6 (Homo sapiens, UniProt P52564); assay: Inhibition of MKK6
T1 sequence (P52564 whole entry): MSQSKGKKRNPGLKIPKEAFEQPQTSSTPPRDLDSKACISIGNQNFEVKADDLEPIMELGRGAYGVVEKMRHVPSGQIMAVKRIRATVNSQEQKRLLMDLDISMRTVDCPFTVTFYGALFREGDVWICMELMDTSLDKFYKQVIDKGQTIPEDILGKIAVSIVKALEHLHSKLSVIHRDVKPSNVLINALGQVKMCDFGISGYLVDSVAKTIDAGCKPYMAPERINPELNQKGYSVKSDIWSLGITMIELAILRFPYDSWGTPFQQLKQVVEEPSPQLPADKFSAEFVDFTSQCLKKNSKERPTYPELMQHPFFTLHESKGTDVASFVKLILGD

[6] = molecular target: Protein kinase C alpha type (Homo sapiens, UniProt P17252); assay: Inhibition of PKCalpha
[7] = Inhibition of PKA
[8] = molecular target: Proto-oncogene tyrosine-protein kinase Src (Homo sapiens, UniProt P12931); assay: Inhibition of SRC
[9] = molecular target: Cyclin-dependent kinase 4 (Homo sapiens, UniProt P11802); assay: Inhibition of CDK4
Cyclin-dependent kinase 4, sequence (P11802 whole entry): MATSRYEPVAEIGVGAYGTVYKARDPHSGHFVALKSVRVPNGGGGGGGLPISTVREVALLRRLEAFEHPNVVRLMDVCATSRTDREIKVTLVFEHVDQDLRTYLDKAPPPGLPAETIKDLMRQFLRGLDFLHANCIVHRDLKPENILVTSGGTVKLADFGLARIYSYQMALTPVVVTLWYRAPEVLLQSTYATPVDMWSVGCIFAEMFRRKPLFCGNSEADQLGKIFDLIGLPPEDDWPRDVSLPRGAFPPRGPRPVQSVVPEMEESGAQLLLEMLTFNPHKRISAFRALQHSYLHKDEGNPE

[10] = molecular target: Mitogen-activated protein kinase 8 (Homo sapiens, UniProt P45983); assay: Inhibition of JNK1
Mitogen-activated protein kinase 8, sequence (P45983 whole entry): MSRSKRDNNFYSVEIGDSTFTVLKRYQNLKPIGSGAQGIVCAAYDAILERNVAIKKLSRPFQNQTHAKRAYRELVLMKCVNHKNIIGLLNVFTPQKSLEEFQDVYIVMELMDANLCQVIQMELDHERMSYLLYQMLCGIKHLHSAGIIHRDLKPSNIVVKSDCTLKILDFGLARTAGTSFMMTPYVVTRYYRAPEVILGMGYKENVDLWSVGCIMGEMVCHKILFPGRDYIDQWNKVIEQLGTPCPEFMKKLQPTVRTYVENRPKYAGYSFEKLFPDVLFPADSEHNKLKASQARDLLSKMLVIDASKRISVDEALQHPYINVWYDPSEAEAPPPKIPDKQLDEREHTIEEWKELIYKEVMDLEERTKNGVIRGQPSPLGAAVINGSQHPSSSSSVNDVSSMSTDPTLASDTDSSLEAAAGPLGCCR

[11] = molecular target: T2, Inhibitor of nuclear factor kappa-B kinase subunit beta (Homo sapiens, UniProt O14920); assay: Inhibition of IKK-beta
T2 sequence (O14920 whole entry): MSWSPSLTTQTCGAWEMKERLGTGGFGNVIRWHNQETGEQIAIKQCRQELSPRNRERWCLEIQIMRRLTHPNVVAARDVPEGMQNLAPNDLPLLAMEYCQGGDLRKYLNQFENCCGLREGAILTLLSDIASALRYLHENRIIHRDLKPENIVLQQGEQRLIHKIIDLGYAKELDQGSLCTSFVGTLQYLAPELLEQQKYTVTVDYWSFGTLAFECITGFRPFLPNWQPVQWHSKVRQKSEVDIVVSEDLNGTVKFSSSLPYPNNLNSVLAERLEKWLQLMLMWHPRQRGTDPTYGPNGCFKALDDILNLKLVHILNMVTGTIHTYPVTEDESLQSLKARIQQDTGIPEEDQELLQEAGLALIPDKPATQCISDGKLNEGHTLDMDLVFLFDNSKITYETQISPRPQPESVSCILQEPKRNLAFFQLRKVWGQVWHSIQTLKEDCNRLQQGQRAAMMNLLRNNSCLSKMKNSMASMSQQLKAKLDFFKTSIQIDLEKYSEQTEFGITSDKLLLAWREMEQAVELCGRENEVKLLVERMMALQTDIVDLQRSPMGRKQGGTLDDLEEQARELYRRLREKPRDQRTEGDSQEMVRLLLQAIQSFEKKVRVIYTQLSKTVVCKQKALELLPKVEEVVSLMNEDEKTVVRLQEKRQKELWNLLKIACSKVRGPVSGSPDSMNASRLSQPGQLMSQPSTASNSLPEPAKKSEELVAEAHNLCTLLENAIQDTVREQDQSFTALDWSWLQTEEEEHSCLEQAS

[12] = molecular target: Ribosomal protein S6 kinase beta-1 (Homo sapiens, UniProt P23443); assay: Inhibition of p70S6K
[13] = molecular target: Phosphatidylinositol 4,5-bisphosphate 3-kinase catalytic subunit alpha isoform (Homo sapiens, UniProt P42336); assay: Inhibition of PI3Kalpha
Phosphatidylinositol 4,5-bisphosphate 3-kinase catalytic subunit alpha isoform, sequence (P42336 whole entry, canonical isoform): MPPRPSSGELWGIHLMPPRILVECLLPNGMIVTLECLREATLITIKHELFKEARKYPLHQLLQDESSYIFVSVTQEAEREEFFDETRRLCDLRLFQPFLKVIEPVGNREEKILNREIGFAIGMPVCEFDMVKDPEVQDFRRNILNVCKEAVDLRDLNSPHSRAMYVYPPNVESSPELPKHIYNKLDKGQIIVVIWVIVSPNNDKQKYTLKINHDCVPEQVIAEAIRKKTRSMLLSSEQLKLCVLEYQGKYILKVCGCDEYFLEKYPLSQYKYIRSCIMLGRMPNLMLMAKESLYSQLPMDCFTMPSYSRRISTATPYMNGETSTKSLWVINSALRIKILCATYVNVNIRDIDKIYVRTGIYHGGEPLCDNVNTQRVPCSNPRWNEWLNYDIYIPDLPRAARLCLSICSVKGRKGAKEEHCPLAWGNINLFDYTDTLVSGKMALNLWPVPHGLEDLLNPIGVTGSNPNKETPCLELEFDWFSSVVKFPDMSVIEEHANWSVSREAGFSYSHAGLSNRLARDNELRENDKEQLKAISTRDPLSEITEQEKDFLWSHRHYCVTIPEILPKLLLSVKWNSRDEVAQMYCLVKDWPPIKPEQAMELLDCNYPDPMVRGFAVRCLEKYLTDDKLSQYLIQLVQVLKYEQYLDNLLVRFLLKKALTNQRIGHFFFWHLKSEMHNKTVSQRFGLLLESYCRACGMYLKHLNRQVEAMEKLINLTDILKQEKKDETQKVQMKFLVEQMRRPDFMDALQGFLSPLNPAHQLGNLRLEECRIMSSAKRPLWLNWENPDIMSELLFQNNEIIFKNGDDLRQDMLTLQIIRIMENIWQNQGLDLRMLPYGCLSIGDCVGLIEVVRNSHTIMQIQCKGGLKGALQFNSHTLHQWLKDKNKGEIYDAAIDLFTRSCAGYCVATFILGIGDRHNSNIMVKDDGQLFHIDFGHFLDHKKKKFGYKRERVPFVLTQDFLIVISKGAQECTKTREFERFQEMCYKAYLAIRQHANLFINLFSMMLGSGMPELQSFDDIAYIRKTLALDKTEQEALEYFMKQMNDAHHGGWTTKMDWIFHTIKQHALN

[14] = molecular target: Cyclin-dependent kinase 2 (Homo sapiens, UniProt P24941); assay: Inhibition of CDK2
[15] = molecular target: Serine/threonine-protein kinase PLK1 (Homo sapiens, UniProt P53350); assay: Inhibition of PLK1
Serine/threonine-protein kinase PLK1, sequence (P53350 whole entry): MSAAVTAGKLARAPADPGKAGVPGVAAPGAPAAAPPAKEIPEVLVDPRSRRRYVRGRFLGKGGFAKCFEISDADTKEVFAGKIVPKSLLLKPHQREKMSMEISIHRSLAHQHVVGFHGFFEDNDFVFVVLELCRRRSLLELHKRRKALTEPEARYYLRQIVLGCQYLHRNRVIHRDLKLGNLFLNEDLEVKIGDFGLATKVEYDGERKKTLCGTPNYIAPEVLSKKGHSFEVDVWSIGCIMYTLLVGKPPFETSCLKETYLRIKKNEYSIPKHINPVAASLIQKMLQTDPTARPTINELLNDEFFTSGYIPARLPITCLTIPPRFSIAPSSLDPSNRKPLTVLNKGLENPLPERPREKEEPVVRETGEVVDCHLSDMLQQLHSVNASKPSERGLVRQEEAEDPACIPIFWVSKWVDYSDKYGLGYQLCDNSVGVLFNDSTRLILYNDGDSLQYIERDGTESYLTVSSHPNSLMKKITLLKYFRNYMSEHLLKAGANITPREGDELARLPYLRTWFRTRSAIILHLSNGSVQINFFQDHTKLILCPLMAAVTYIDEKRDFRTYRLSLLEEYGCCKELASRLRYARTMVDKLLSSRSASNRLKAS

[16] = molecular target: MAP kinase-activated protein kinase 2 (Homo sapiens, UniProt P49137); assay: Inhibition of MK2
MAP kinase-activated protein kinase 2, sequence (P49137 whole entry): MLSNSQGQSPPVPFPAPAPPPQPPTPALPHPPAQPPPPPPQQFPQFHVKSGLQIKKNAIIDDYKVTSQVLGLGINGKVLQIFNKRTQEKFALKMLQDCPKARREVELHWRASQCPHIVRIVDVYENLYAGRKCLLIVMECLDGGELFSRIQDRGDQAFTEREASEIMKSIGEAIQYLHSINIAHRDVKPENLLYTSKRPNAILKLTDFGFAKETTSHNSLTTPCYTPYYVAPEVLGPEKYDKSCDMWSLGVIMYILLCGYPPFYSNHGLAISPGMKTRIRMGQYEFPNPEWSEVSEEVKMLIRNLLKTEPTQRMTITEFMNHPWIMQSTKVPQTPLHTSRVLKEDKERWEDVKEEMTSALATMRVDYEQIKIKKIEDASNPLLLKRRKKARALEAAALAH

[17] = molecular target: Mitogen-activated protein kinase 14 (Homo sapiens, UniProt Q16539); assay: Inhibition of p38alpha
Mitogen-activated protein kinase 14, sequence (Q16539 whole entry): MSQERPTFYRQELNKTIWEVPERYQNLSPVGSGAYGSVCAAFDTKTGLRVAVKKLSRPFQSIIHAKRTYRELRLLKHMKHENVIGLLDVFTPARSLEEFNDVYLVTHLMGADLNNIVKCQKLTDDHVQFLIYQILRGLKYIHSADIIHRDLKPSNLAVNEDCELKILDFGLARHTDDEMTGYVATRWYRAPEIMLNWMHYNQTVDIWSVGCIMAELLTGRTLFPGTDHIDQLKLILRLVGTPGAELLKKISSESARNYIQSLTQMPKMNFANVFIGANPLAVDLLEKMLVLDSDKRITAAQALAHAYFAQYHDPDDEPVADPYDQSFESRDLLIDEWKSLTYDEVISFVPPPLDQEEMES

[18] = Inhibition of CAMK2

Serine/threonine-protein kinase B-raf, sequence (P15056 whole entry): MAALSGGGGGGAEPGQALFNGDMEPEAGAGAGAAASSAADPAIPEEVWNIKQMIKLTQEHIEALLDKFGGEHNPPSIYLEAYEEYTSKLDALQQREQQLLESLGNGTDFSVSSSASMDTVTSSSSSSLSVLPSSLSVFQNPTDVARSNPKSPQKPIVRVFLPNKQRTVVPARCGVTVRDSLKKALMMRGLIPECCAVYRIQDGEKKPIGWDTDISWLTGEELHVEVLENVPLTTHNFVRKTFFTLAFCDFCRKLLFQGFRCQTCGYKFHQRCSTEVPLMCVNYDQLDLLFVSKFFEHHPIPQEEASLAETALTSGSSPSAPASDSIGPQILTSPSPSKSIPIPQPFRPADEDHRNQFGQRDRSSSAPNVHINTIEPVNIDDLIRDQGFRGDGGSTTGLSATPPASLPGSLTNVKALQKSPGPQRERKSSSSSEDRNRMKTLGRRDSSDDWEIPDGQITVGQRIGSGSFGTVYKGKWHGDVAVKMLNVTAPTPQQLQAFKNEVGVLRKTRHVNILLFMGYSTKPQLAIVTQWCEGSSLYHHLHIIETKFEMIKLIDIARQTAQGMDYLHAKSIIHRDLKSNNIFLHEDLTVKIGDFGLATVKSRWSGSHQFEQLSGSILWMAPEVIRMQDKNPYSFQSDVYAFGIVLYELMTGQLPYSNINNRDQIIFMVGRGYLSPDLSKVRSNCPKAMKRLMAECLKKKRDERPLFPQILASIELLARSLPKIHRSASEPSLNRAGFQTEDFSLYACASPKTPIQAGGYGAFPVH

| IC50 [1] [nM] | Compound | IC50 [2] [nM] | IC50 (WM-266-4 (Homo sapiens) [3]) [nM] | further results |
| --- | --- | --- | --- | --- |
| 139 | COCCOCC(=O)Nc1ccc(-c2cnn3c(-c4cccc(NC(=O)c5cccc(C(F)(F)F)c5)c4)ccnc23)cc1 | 3900 | > 10000 | – |
| 34 | CN(C)CC(=O)Nc1ccc(-c2cnn3c(-c4cccc(NC(=O)c5cccc(C(F)(F)F)c5)c4)ccnc23)cc1 | 770 | – | – |
| – | CN(C)CC(=O)Nc1cccc(-c2cnn3c(-c4cccc(NC(=O)c5cccc(C(F)(F)F)c5)c4)ccnc23)c1 | 800 | – | – |
| 44 | CN1CCN(c2ccc(-c3cnn4c(-c5cccc(NC(=O)c6cccc(C(F)(F)F)c6)c5)ccnc34)cn2)CC1 | 310 | – | – |
| – | CN1CCN(CCCC#Cc2cnn3c(-c4cccc(NC(=O)c5cccc(C(F)(F)F)c5)c4)ccnc23)CC1 | 2600 | 1400 | half-life (in vitro): 3 min |
| 308 | CN(C)c1ccc(-c2cnn3c(-c4cccc(NC(=O)c5cccc(C(F)(F)F)c5)c4)ccnc23)cc1 | – | > 10000 | – |
| 98 | COc1ccc(NC(=O)c2cccc(C(F)(F)F)c2)cc1-c1ccnc2c(-c3cn[nH]c3)cnn12 | 2900 | – | – |
| 42 | O=C(Nc1ccc(Cl)c(-c2ccnc3c(-c4cn[nH]c4)cnn23)c1)c1cccc(C(F)(F)F)c1 | 2900 | – | – |
| – | O=C(Nc1cccc(-c2ccnc3c(C#CCCCN4CCOCC4)cnn23)c1)c1cccc(C(F)(F)F)c1 | 3500 | 5500 | half-life (in vitro): > 30 min |
| – | O=C(Nc1cccc(-c2ccnc3c(-c4cn[nH]c4)cnn23)c1)c1cccc(C(F)(F)F)c1 | 2800 | – | – |
| – | O=C(Nc1cccc(-c2ccnc3c(-c4cnn(CCN5CCCC5)c4)cnn23)c1)c1cccc(C(F)(F)F)c1 | 2800 | 3300 | half-life (in vitro): 26 min |
| – | O=C(Nc1cccc(-c2ccnc3c(-c4coc(CN5CCCC5)c4)cnn23)c1)c1cccc(C(F)(F)F)c1 | 2200 | 3200 | – |
| – | NC(=O)c1cccc(-c2cnn3c(-c4cccc(NC(=O)c5cccc(C(F)(F)F)c5)c4)ccnc23)c1 | 3200 | – | IC50 (WM-266-4 (Homo sapiens) [4]): 3700 nM |
| – | CN(C)Cc1ccc(-c2cnn3c(-c4cccc(NC(=O)c5cccc(C(F)(F)F)c5)c4)ccnc23)cc1 | 780 | – | IC50 [5]: > 2000 nM; IC50 [6]: > 2000 nM; IC50 [7]: > 2000 nM; IC50 [8]: > 2000 nM; IC50 [9]: > 2000 nM; IC50 [10]: > 2000 nM; IC50 [11]: > 2000 nM; IC50 [12]: > 2000 nM; IC50 [13]: > 2000 nM; IC50 [14]: > 2000 nM; IC50 [15]: > 2000 nM; half-life (in vitro): 6 min; IC50 [16]: > 2000 nM; IC50 [17]: 216 nM; IC50 [18]: 822 nM |
| 20 | O=C(Nc1cccc(-c2ccnc3c(-c4ccc(CN5CCCC5)cc4)cnn23)c1)c1cccc(C(F)(F)F)c1 | 650 | – | half-life (in vitro): 27 min |
| 113 | O=C(Nc1cccc(-c2ccnc3c(-c4cccnc4)cnn23)c1)c1cccc(C(F)(F)F)c1 | – | – | – |
| – | Nc1ccc(-c2cnn3c(-c4cccc(NC(=O)c5cccc(C(F)(F)F)c5)c4)ccnc23)cn1 | 2400 | 3400 | – |
| – | CN(C)CCNc1ccc(-c2cnn3c(-c4cccc(NC(=O)c5cccc(C(F)(F)F)c5)c4)ccnc23)cn1 | 460 | – | – |
| – | CN(C)CCc1ccc(-c2cnn3c(-c4cccc(NC(=O)c5cccc(C(F)(F)F)c5)c4)ccnc23)cc1 | 730 | 740 | – |
| – | CN(C)Cc1ccccc1-c1cnn2c(-c3cccc(NC(=O)c4cccc(C(F)(F)F)c4)c3)ccnc12 | 2900 | 2900 | – |
| – | CN(C)Cc1cccc(-c2cnn3c(-c4cccc(NC(=O)c5cccc(C(F)(F)F)c5)c4)ccnc23)c1 | 800 | – | – |
| – | CN(C)CCc1ccccc1-c1cnn2c(-c3cccc(NC(=O)c4cccc(C(F)(F)F)c4)c3)ccnc12 | 840 | – | – |
| – | CN(C)CCc1cccc(-c2cnn3c(-c4cccc(NC(=O)c5cccc(C(F)(F)F)c5)c4)ccnc23)c1 | 650 | – | – |

| Compound | IC50 [1] [nM] | IC50 [2] [nM] | IC50 (WM-266-4 (Homo sapiens) [3]) [nM] | further results |
| --- | --- | --- | --- | --- |
| CN1CCN(c2ccc(-c3cnn4c(-c5cc(NC(=O)c6cccc(C(F)(F)F)c6)ccc5F)ccnc34)cn2)CC1 | 30 | 630 | – | – |
| CN1CCN(Cc2ccc(-c3cnn4c(-c5cccc(NC(=O)c6cccc(C(F)(F)F)c6)c5)ccnc34)cc2)CC1 | 38 | 700 | – | half-life (in vitro): 3 min |
| CCN1CCN(Cc2cc(-c3cnn4c(-c5cccc(NC(=O)c6cccc(C(F)(F)F)c6)c5)ccnc34)co2)CC1 | 219 | 1700 | 2900 | – |
| O=C(Nc1ccc(F)c(-c2ccnc3c(-c4cn[nH]c4)cnn23)c1)c1cccc(C(F)(F)F)c1 | 18 | 2800 | – | – |
| O=C(Nc1cccc(-c2ccnc3c(-c4cnc(N5CCOCC5)nc4)cnn23)c1)c1cccc(C(F)(F)F)c1 | 941 | – | – | – |
